# Reference: PubChem BioAssay AID330 (DTP/NCI, 2004)
# “And” between values parts separate entries of the source, which are not always exact repeats. Equal entries are not always repeated. Inconclusive results and toxic doses are left out.
# Tested on: P388 leukemia ip, CD2F1 mice, survival T/C
# Experiment: NCI In Vivo Anticancer Drug Screen. Data for tumor model P388 Leukemia (intraperitoneal) in CD2F1 (CDF1) mice
# Conditions: endpoint: median survival time, higher = longer survival
# Summary of the method: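 Mice carrying the transplanted tumor received test compound or vehicle. Survival was recorded in each group, and the value is the treated-group measurement divided by that of the vehicle-treated control group.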
# [1] = dose: 60.0 mg/kg/injection, schedule: Q01DX005 (ip), vehicle: saline with Tween-80
# [2] = dose: 50.0 mg/kg/injection, schedule: Q01DX005 (ip), vehicle: Klucel (hydroxypropylcellulose) (HPC)
# [3] = dose: 100.0 mg/kg/injection, schedule: Q01DX005 (ip), vehicle: Klucel (hydroxypropylcellulose) (HPC)
# [4] = dose: 200.0 mg/kg/injection, schedule: Q01DX005 (ip), vehicle: Klucel (hydroxypropylcellulose) (HPC)
# [5] = dose: 50.0 mg/kg/injection, schedule: Q01DX005 (ip), vehicle: saline with Tween-80
# [6] = dose: 100.0 mg/kg/injection, schedule: Q01DX005 (ip), vehicle: saline with Tween-80
# [7] = dose: 200.0 mg/kg/injection, schedule: Q01DX005 (ip), vehicle: saline with Tween-80
# [8] = dose: 120.0 mg/kg/injection, schedule: Q01DX005 (ip), vehicle: saline with Tween-80
# [9] = dose: 240.0 mg/kg/injection, schedule: Q01DX005 (ip), vehicle: saline with Tween-80
compound,measurement,setting,value
Cc1ccc(S(=O)(=O)NC(CNC(N)=O)C(=O)O)cc1 (stereo unspecified),T/C,"dose: 12.5 mg/kg/injection, schedule: Q01DX009 (ip), vehicle: other",107 % of control
same,T/C,"dose: 25.0 mg/kg/injection, schedule: Q01DX009 (ip), vehicle: other",101 % of control
same,T/C,"dose: 50.0 mg/kg/injection, schedule: Q01DX009 (ip), vehicle: other",100 % of control
same,T/C,"dose: 100.0 mg/kg/injection, schedule: Q01DX009 (ip), vehicle: other",97 % of control
same,T/C,"dose: 200.0 mg/kg/injection, schedule: Q01DX009 (ip), vehicle: other",96 % of control
ON=C1C2C=CC=CC1C=C2,T/C,"dose: 6.25 mg/kg/injection, schedule: Q01DX009 (ip), vehicle: saline",90 % of control
same,T/C,"dose: 12.5 mg/kg/injection, schedule: Q01DX009 (ip), vehicle: saline",96 % of control
same,T/C,"dose: 25.0 mg/kg/injection, schedule: Q01DX009 (ip), vehicle: saline",90 % of control
O=C1CC(c2ccc(Cl)cc2)C(c2ccc(Cl)cc2)C1C(=O)OC1CCCCC1 (stereo unspecified),T/C,"dose: 1.56 mg/kg/injection, schedule: Q01DX001 (ip), vehicle: Klucel (hydroxypropylcellulose) (HPC)",110 % of control
same,T/C,"dose: 3.13 mg/kg/injection, schedule: Q01DX001 (ip), vehicle: Klucel (hydroxypropylcellulose) (HPC)",107 % of control
same,T/C,"dose: 6.25 mg/kg/injection, schedule: Q01DX001 (ip), vehicle: Klucel (hydroxypropylcellulose) (HPC)",107 % of control and 89 % of control
CCOc1ccccc1NC1=C(Cl)C(=O)c2ccccc2C1=O,T/C,"dose: 7.5 mg/kg/injection, schedule: Q01DX005 (ip), vehicle: saline with Tween-80",100 % of control
same,T/C,"dose: 15.0 mg/kg/injection, schedule: Q01DX005 (ip), vehicle: saline with Tween-80",94 % of control
same,T/C,"dose: 30.0 mg/kg/injection, schedule: Q01DX005 (ip), vehicle: saline with Tween-80",97 % of control
same,T/C,[1],103 % of control
Nc1ncnc2c1ncn2C1OC(CO)CC1O (stereo unspecified),T/C,"dose: 9.37 mg/kg/injection, schedule: Q01DX009 (ip), vehicle: Klucel (hydroxypropylcellulose) (HPC)",109 % of control
same,T/C,"dose: 18.75 mg/kg/injection, schedule: Q01DX009 (ip), vehicle: Klucel (hydroxypropylcellulose) (HPC)",104 % of control
same,T/C,"dose: 37.5 mg/kg/injection, schedule: Q01DX009 (ip), vehicle: Klucel (hydroxypropylcellulose) (HPC)",110 % of control
same,T/C,"dose: 75.0 mg/kg/injection, schedule: Q01DX009 (ip), vehicle: Klucel (hydroxypropylcellulose) (HPC)",112 % of control
CC(C)C1=CC23CCC4C(C)(C(=O)O)CCCC4(C)C2CC1C(C(=O)O)C3C(=O)O (stereo unspecified),T/C,"dose: 50.0 mg/kg/injection, schedule: Q01DX005 (ip), vehicle: saline",97 % of control
same,T/C,"dose: 100.0 mg/kg/injection, schedule: Q01DX005 (ip), vehicle: saline",96 % of control
same,T/C,"dose: 200.0 mg/kg/injection, schedule: Q01DX005 (ip), vehicle: saline",98 % of control
COc1ccccc1P(=S)(c1ccccc1)c1ccccc1,T/C,[2],99 % of control
same,T/C,[3],99 % of control
same,T/C,[4],96 % of control
CNC(=O)OCc1c2ccncc2c(C)c2c1[nH]c1ccccc12,T/C,"dose: 6.25 mg/kg/injection, schedule: Q04DX002 (ip), vehicle: saline with Tween-80",163 % of control
same,T/C,"dose: 12.5 mg/kg/injection, schedule: Q04DX002 (ip), vehicle: saline with Tween-80",150 % of control
same,T/C,"dose: 25.0 mg/kg/injection, schedule: Q04DX002 (ip), vehicle: saline with Tween-80",153 % of control and 167 % of control
same,T/C,"dose: 50.0 mg/kg/injection, schedule: Q04DX002 (ip), vehicle: saline with Tween-80",109 % of control
COc1ccc(C2CCC[C@H](CCc3ccc(O)cc3)O2)cc1 (stereo partly specified),T/C,[5],97 % of control
same,T/C,[6],114 % of control
same,T/C,[7],109 % of control
C[n+]1c(C2(O)CCCCCCCCCCC2)sc2ccccc21,T/C,"dose: 60.0 mg/kg/injection, schedule: Q01DX005 (ip), vehicle: Klucel (hydroxypropylcellulose) (HPC)",95 % of control
same,T/C,"dose: 120.0 mg/kg/injection, schedule: Q01DX005 (ip), vehicle: Klucel (hydroxypropylcellulose) (HPC)",100 % of control
same,T/C,"dose: 240.0 mg/kg/injection, schedule: Q01DX005 (ip), vehicle: Klucel (hydroxypropylcellulose) (HPC)",115 % of control
C[C@@]12CCCC[C@@H]1Nc1ccccc12,T/C,[1],98 % of control
same,T/C,[8],100 % of control
same,T/C,[9],97 % of control
CCCCCCC(C)OC(=O)OCCOCCOC(=O)OC(C)C(=O)OCCCC (stereo unspecified),T/C,"dose: 60.0 mg/kg/injection, schedule: Q01DX005 (ip), vehicle: saline",100 % of control
same,T/C,"dose: 120.0 mg/kg/injection, schedule: Q01DX005 (ip), vehicle: saline",94 % of control
same,T/C,"dose: 240.0 mg/kg/injection, schedule: Q01DX005 (ip), vehicle: saline",100 % of control
COc1ccc(NC(=S)Nc2ccc(OCCCN3CCOCC3)cc2)cc1,T/C,"dose: 100.0 mg/kg/injection, schedule: Q04DX002 (ip), vehicle: Klucel (hydroxypropylcellulose) (HPC)",96 % of control
same,T/C,"dose: 200.0 mg/kg/injection, schedule: Q04DX002 (ip), vehicle: Klucel (hydroxypropylcellulose) (HPC)",94 % of control
same,T/C,"dose: 400.0 mg/kg/injection, schedule: Q04DX002 (ip), vehicle: Klucel (hydroxypropylcellulose) (HPC)",94 % of control
O=C(O)/C(=C/c1ccc([N+](=O)[O-])cc1)c1ccccc1,T/C,[2],102 % of control
same,T/C,[3],95 % of control
same,T/C,[4],102 % of control
COc1cccc2c1C(=O)c1c(O)c3c(c(O)c1C2=O)CC(O)(C(=O)CO)CC3OC1CC(N)C(I)C(C)O1 (stereo unspecified),T/C,"dose: 5.0 mg/kg/injection, schedule: Q01DX001 (ip), vehicle: saline",165 % of control and 170 % of control
same,T/C,"dose: 7.5 mg/kg/injection, schedule: Q01DX001 (ip), vehicle: saline",167 % of control and 191 % of control
same,T/C,"dose: 11.2 mg/kg/injection, schedule: Q01DX001 (ip), vehicle: saline",208 % of control and 212 % of control
same,T/C,"dose: 16.8 mg/kg/injection, schedule: Q01DX001 (ip), vehicle: saline",220 % of control
same,T/C,"dose: 25.2 mg/kg/injection, schedule: Q01DX001 (ip), vehicle: saline",234 % of control
O=C1c2cccc(NCCNCCO)c2C(=O)c2cccc(Cl)c21,T/C,"dose: 5.0 mg/kg/injection, schedule: Q01DX009 (ip), vehicle: acid diluted with saline",98 % of control
same,T/C,"dose: 10.0 mg/kg/injection, schedule: Q01DX009 (ip), vehicle: acid diluted with saline",113 % of control
same,T/C,"dose: 20.0 mg/kg/injection, schedule: Q01DX009 (ip), vehicle: acid diluted with saline",115 % of control
same,T/C,"dose: 40.0 mg/kg/injection, schedule: Q01DX009 (ip), vehicle: acid diluted with saline",113 % of control
same,T/C,"dose: 80.0 mg/kg/injection, schedule: Q01DX009 (ip), vehicle: acid diluted with saline",124 % of control
same,T/C,"dose: 160.0 mg/kg/injection, schedule: Q01DX009 (ip), vehicle: acid diluted with saline",120 % of control
CN(C)c1ccc2c(Oc3ccccc3)cc(N)nc2c1,T/C,[5],94 % of control
same,T/C,[6],92 % of control
same,T/C,[7],92 % of control
CCOC(=O)c1ccc(NC(=O)O/N=C/c2ccncc2)cc1,T/C,"dose: 6.25 mg/kg/injection, schedule: Q01DX009 (ip), vehicle: saline with Tween-80",88 % of control
same,T/C,"dose: 12.5 mg/kg/injection, schedule: Q01DX009 (ip), vehicle: saline with Tween-80",112 % of control
same,T/C,"dose: 25.0 mg/kg/injection, schedule: Q01DX009 (ip), vehicle: saline with Tween-80",88 % of control
same,T/C,"dose: 50.0 mg/kg/injection, schedule: Q01DX009 (ip), vehicle: saline with Tween-80",93 % of control
same,T/C,"dose: 100.0 mg/kg/injection, schedule: Q01DX009 (ip), vehicle: saline with Tween-80",94 % of control
same,T/C,"dose: 200.0 mg/kg/injection, schedule: Q01DX009 (ip), vehicle: saline with Tween-80",90 % of control
CN(N=O)C(=O)NCCNC(=O)C1OC(n2ccc(=O)[nH]c2=O)C(O)C1O (stereo unspecified),T/C,"dose: 100.0 mg/kg/injection, schedule: Q01DX009 (ip), vehicle: saline",108 % of control
O=C1C2C3CC(c4ccccc43)C2N1S(=O)(=O)Cl (stereo unspecified),T/C,[1],107 % of control
same,T/C,[8],106 % of control
same,T/C,[9],114 % of control
COC(=O)c1cc(OC(C)=O)c2cc3c(cc2c1-c1cc(OC)c(OC)c(OC)c1)OCO3,T/C,"dose: 100.0 mg/kg/injection, schedule: Q04DX003 (ip), vehicle: Klucel (hydroxypropylcellulose) (HPC)",93 % of control
same,T/C,"dose: 200.0 mg/kg/injection, schedule: Q04DX003 (ip), vehicle: Klucel (hydroxypropylcellulose) (HPC)",89 % of control
FC(F)(F)c1ccccc1NC(=S)Nc1ccc(I)cc1,T/C,"dose: 50.0 mg/kg/injection, schedule: Q01DX009 (ip), vehicle: gum acacia",92 % of control
same,T/C,"dose: 100.0 mg/kg/injection, schedule: Q01DX009 (ip), vehicle: gum acacia",92 % of control
same,T/C,"dose: 200.0 mg/kg/injection, schedule: Q01DX009 (ip), vehicle: gum acacia",89 % of control
